Here are results for two compounds from BindingDB's records for doi:10.1038/nchembio.1930 (Albert Einstein College of Medicine, 2015).

Common to all, as to conditions: 25 °C
The target in assay [1] is T1, Isocitrate dehydrogenase [NADP], mitochondrial (Homo sapiens, UniProt P48735).
T1 sequence (P48735 whole entry): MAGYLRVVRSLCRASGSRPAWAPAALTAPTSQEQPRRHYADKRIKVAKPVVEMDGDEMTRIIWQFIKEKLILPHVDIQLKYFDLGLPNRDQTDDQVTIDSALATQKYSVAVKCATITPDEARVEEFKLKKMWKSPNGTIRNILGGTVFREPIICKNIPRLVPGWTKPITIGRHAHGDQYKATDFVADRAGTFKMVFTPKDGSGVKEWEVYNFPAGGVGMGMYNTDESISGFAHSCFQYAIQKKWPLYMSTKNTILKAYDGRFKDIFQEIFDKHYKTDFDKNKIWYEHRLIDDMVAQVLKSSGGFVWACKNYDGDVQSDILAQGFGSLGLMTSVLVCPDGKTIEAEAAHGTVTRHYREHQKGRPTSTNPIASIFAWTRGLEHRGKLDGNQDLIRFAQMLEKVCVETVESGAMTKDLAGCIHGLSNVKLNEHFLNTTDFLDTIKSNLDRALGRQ
Kind of assay: Diaphorase/Resazurin Coupled Assay. How it is done:
(§1) For WT IDH1 and IDH2, reactions were conducted at room temperature in 384-well Greiner black microtiter plates in a total volume of 10 μL of assay buffer. […] Reactions were conducted in duplicate and run kinetically. After each addition, plates were centrifuged for 60 s to ensure complete mixing of reagents.
(In general: Resazurin is reduced to fluorescent resorufin, in cell work by metabolically active cells.)

Assay [2] concerns the target Isocitrate dehydrogenase [NADP], mitochondrial [R140Q] (Homo sapiens, UniProt P48735, R140Q). Kind of assay: RapidFire-MS/MS and NADPH Assays. How it is done: (§2) Reactions were conducted in duplicate and quenched with final concentrations of 100 mM EDTA. After each addition plates were centrifuged for 60 s to ensure complete mixing of reagents. […] For the RapidFire-MS/MS analysis, a 0.5 μL aliquot of each well was diluted 200-fold into a separate analysis plate containing 100 μL of a f

For assay [3], the target named is Isocitrate dehydrogenase [NADP], mitochondrial [R172S] (Homo sapiens, UniProt P48735, R172S). The assay is described as follows: RapidFire-MS/MS and NADPH Assays. How it is done: as §2
Assay [4] has as its target Isocitrate dehydrogenase [NADP] cytoplasmic (Homo sapiens, UniProt O75874). Kind of assay: Diaphorase/Resazurin Coupled Assay. How it is done:
as §1

The target in assay [5] is Isocitrate dehydrogenase [NADP] cytoplasmic [R132C] (Homo sapiens, UniProt O75874, R132C). The assay is described as follows: RapidFire-MS/MS and NADPH Assays. As to the method:
as §2

Assay [6] concerns the target Isocitrate dehydrogenase [NADP] cytoplasmic [R132G] (Homo sapiens, UniProt O75874, R132G). Kind of assay: RapidFire-MS/MS and NADPH Assays. How it is done:
as §2

The target of assay [7] is Isocitrate dehydrogenase [NADP] cytoplasmic [R132H] (Homo sapiens, UniProt O75874, R132H). The assay is described as follows: RapidFire-MS/MS and NADPH Assays. As to the method: as §2

What is called IC50 is the concentration at which inhibition is half-maximal.

SMILES strings stand for the structures.

Isocitrate dehydrogenase [NADP], mitochondrial [R140Q], sequence (P48735 40-452 R140Q limits assumed): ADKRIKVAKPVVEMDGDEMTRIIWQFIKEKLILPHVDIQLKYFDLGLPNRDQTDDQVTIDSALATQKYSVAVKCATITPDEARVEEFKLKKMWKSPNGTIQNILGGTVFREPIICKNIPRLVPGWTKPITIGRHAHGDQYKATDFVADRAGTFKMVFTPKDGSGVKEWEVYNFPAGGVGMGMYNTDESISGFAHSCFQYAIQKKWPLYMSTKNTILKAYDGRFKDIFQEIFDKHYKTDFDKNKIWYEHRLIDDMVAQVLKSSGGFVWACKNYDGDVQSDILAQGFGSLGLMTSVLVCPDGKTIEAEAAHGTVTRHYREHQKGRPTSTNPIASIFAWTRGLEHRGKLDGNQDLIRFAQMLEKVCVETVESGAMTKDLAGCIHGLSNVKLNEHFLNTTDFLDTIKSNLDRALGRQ
Isocitrate dehydrogenase [NADP], mitochondrial [R172S], sequence (P48735 40-452 R172S limits assumed): as the sequence (P48735 40-452 R140Q limits assumed) above, with Q101R, R133S counted along it
Isocitrate dehydrogenase [NADP] cytoplasmic [R132G], sequence (O75874 2-414 R132G limits assumed): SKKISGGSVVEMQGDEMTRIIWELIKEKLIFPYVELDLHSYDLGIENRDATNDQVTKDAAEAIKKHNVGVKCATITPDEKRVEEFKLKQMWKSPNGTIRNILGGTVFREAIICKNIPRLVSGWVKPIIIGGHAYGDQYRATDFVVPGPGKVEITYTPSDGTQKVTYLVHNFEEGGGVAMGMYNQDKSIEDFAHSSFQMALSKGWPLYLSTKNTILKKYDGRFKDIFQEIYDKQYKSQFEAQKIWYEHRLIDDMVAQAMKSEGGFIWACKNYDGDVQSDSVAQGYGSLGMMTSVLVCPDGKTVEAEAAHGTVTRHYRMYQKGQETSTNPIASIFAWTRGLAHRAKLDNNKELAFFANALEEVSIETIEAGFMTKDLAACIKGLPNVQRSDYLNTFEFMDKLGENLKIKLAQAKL
Isocitrate dehydrogenase [NADP] cytoplasmic, sequence (O75874 whole entry): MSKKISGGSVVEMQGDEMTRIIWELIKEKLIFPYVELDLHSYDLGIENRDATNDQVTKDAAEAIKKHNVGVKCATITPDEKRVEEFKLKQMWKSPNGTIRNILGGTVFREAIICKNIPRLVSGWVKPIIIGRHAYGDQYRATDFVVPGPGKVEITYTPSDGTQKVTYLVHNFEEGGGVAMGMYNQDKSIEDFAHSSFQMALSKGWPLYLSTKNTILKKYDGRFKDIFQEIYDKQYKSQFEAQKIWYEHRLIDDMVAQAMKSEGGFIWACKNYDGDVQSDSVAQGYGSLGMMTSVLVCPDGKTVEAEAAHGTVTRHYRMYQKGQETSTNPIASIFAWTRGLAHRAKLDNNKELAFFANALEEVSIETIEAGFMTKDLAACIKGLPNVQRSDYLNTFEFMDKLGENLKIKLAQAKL
Isocitrate dehydrogenase [NADP] cytoplasmic [R132H], sequence (O75874 2-414 R132H limits assumed): as the sequence (O75874 2-414 R132G limits assumed) above, with G131H counted along it
Isocitrate dehydrogenase [NADP] cytoplasmic [R132C], sequence (O75874 2-414 R132C limits assumed): as the sequence (O75874 2-414 R132G limits assumed) above, with G131C counted along it

As for `C[C@H](O)c1cccc(NC(=O)c2nn(Cc3ccc(F)cc3)c3c2CN(C(=O)c2ccc[nH]2)C[C@H]3C)c1` [GSK321], the 50% inhibitory concentration (IC50) in assay [1] stood at 0.496 µM; in assay [2], 1.36 µM; in assay [3], 1.03 µM.

Regarding `Cc1cccc(NC(=O)c2nn(Cc3c[nH]cn3)c3c2CN(C(=O)c2ccc[nH]2)CC3)c1` [GSK990], the IC50 in assay [4] is > 100 µM; in assay [1], > 100 µM; in assay [5], 4.49 µM; in assay [6] it was 23.3 µM; in assay [7] it was 10.9 µM; in assay [2] it was > 100 µM. The concentration for half-maximal inhibition (IC50) in assay [3] is > 100 µM.
